The record followed here is US20110003898A1, “MEDICAL GLUES FOR SURGERY COMPRISING BIOACTIVE COMPOUNDS” (Bayer MaterialScience AG, priority 2008, published 2011).

Holding throughout (format): physicochemical
A short description of data set [1]: Film formation on the skin, cure time to disappearance of surface tackiness. To be noted: adhesive with 2-5% active ingredient; ^2 = suspension. The source says:
(§1) 0.45 g of PEG 200 were mixed thoroughly with 0.55 g of aspartate B and 2-5% of the active ingredient. The solution was stirred with 4 g of prepolymer A and applied to the tissue. We tested for processing time and the effect of adhesion to meat as well as the formation of a film on the skin.

Data set [2] can be described thus: Pot life (processing time) of adhesive with active ingredient. To be noted: 0.45 g PEG 200, 0.55 g aspartate B, 2-5% active ingredient, 4 g prepolymer A; ^2 = active substance in suspension.
Description: as §1

Data set [3] is described as follows: Active substance release from adhesive film into physiological saline (HPLC-UV/MS). To be noted: 37° C., 2 h; for Release: 5x5 cm section (0.5 g) in 20 g physiological saline; for Amount of active substance released [%]: physiological saline. The method, then: For the quantitative determination of the active substance release, a transparent film with a thickness of 200 ? was produced by knife coating from 4 g of prepolymer A, 0.45 g of PEG 200, […] A section measuring 5×5 cm (weight: 0.5 g) was cut from this film, placed in a petri dish, covered with 20 g of physiological saline solution, and stored in an incubator at 37° C. for 2 h. The quantitative determination was carried out via HPLC-UV/MS (HPLC column: Inertsil ODS 3 5 □ 120 A 125 mm*2.1 mm 60° C.; eluent A: 25 mmol ammonium acetate in water, eluent B: 25 mmol ammonium acetate in methanol).

The mark [4] stands for this setting: 100 mg active substance in film.
The mark [5] stands for this setting: 250 mg active substance in film.

Regarding `COc1ccc2c(c1)c(CC(=O)OCC(=O)O)c(C)n2C(=O)c1ccc(Cl)cc1` [acemetacine], the “Film formation cure time [min to disappearance of surface tackiness]” value (shortened to “Film formation cure time”) in data set [1] amounted to 7 min. `OC(Cn1cncn1)(Cn1cncn1)c1ccc(F)cc1F` [fluconazole] gave a Pot life in data set [2] of 3 min. Besides, in data set [1], the “Film formation cure time” value is on record as 15 min. For `O=C1OC(CN2CCOCC2)CN1/N=C/c1ccc([N+](=O)[O-])o1` (stereo not shown) [furaldatone], in data set [1], the “Film formation cure time” value was 4 min.

As to `CC[C@H]1OC(=O)[C@H](C)[C@@H](O[C@H]2C[C@@](C)(OC)[C@@H](O)[C@H](C)O2)[C@H](C)[C@@H](O[C@@H]2O[C@H](C)C[C@H](N(C)C)[C@H]2O)[C@](C)(O)C[C@@H](C)C(=O)[C@H](C)[C@@H](O)[C@]1(C)O` [erythromycin], the “Film formation cure time” value in data set [1] is listed as 6 min. As for `[H]/N=C(\N/C(=N/[H])NCCCCCCNC(=N)NC(=N)Nc1ccc(Cl)cc1)Nc1ccc(Cl)cc1` [chlorhexidine], the Pot life in data set [2] was 0.5 min. Besides, the “Film formation cure time” value in data set [1] amounted to 3 min. In the case of `Oc1cc(Cl)ccc1Oc1ccc(Cl)cc1Cl` [triclosan (Irgasan), 2,4,4′-trichloro-2′-hydroxydiphenyl ether], the “Film formation cure time” value in data set [1] is 5 min. As for `CC(=O)Nc1ccc(O)cc1` [paracetamol], in data set [3] (setting [4]), the Release was determined as 136 mg/L and the “Amount of active substance released [%]” value is 27.2%. For the same molecule, in data set [1], the “Film formation cure time” value was 7 min. Regarding `CCCCN1CCCCC1C(=O)Nc1c(C)cccc1C` (stereo not shown) [bupivacaine], in data set [1], the “Film formation cure time” value was 6 min. Take `C[C@]12CCC(=O)C=C1CC[C@@H]1[C@@H]2C(=O)C[C@@]2(C)[C@H]1CC[C@]2(O)C(=O)CO` [cortisone]: in data set [3] (setting [4]), the Release stood at 230 mg/L and the “Amount of active substance released [%]” value amounted to 46%. Further, the “Film formation cure time” value in data set [1] came to 5 min.

In turn, `Cc1ncc([N+](=O)[O-])n1CCO` [metronidazole] came in with a Pot life in data set [2] of 2 min. For the same molecule, in data set [1], the “Film formation cure time” value is 5 min.

Turning to `O=C(N[C@H](CO)[C@H](O)c1ccc([N+](=O)[O-])cc1)C(Cl)Cl` [chloramphenicol], in data set [3] (setting [5]), the Release was found to be 646 mg/L and the “Amount of active substance released [%]” value was 51.7%. Besides, the “Film formation cure time” value in data set [1] turned out to be 5 min. With `CC(=O)Oc1ccccc1C(=O)O` [acetylsalicylic acid], in data set [3] (setting [5]), the Release came out at 320 mg/L and the “Amount of active substance released [%]” value amounted to 25.6%. Also, the “Film formation cure time” value in data set [1] is 4 min. As to `CCOC(=O)c1ccc(N)cc1` [benzocaine], in data set [1], the “Film formation cure time” value is given as 6 min. For `CCN(CC)CC(=O)Nc1c(C)cccc1C` [lidocaine], in data set [3] (setting [5]), the Release stood at 570 mg/L and the “Amount of active substance released [%]” value was found to be 45.6%. Besides, the “Film formation cure time” value in data set [1] came to 4 min.

`Cc1ccc(C(C)C)c(O)c1` [thymol]: the “Film formation cure time” value in data set [1] worked out at 5 min. With `CCCCNc1ccc(C(=O)OCCN(C)C)cc1` [tetracaine], the “Film formation cure time” value in data set [1] came out at 7 min. Regarding `CCN1CCN(c2cc3c(cc2F)c(=O)c(C(=O)O)cn3C2CC2)CC1` [enrofloxazine], the Pot life in data set [2] came to 1 min. In data set [1], the “Film formation cure time” value came out at 4 min.

For the molecule `CC(C)Cc1ccc(C(C)C(=O)O)cc1` (stereo not shown) [ibuprofen], the “Film formation cure time” value in data set [1] is 6 min.

Regarding `COc1cccc(C2(O)CCCCC2CN(C)C)c1` (stereo not shown) [tramadol], the “Film formation cure time” value in data set [1] is 4 min.

As for `CC(=O)NS(=O)(=O)c1ccc(N)cc1` [sulfacetamide], the “Film formation cure time” value in data set [1] was determined as 5 min.

Take `CCn1cc(C(=O)O)c(=O)c2ccc(C)nc21` [nalidixic acid]: in data set [3] (setting [4]), the Release came to 110 mg/L and the “Amount of active substance released [%]” value is reported as 22%. Moreover, in data set [1], the “Film formation cure time” value is 5 min.
